Reference: article PMC10361207, “Cannabinoid and Opioid Receptor Affinity and Modulation of Cancer-Related Signaling Pathways of Machaeriols and Machaeridiols from Machaerium Pers” (Molecules, 2023)
Read-outs that look alike come from different tables or passages of the source.

What was measured:
CB2 receptor = biological target: T1, CB2 receptor (Homo sapiens, UniProt P34972); experiment: Competitive radioligand binding assay, CB2; settings: for Percent displacement, CB2: 10 μM, [3H]-CP55,940
T1 construct: expressed in transfected cells; host or cells: HEK293 (ATCC), stably transfected; membranes
Experimental: (§1) HEK293 cells stably transfected with δ, κ and μ opioid subtypes were a generous gift from Roth Laboratories (University of North Carolina at Chapel Hill, N.C., USA). CB and opioid cells were maintained as previously described.
(§2) Membranes were purified by first washing the cells with cold PBS and scraping the cells into cold 50 mM Tris-HCl, pH 7.4 buffer, which was centrifuged at 5200× g for 10 min at 4 °C; next, the supernatant was discarded, and the pellet was washed with more Tris-HCl buffer, homogenized via a Sonic Dismembrator (Fisher Scientific, Pittsburgh, PA, USA) and then centrifuged at 24,000× g for 40 min at 4 °C. Finally, the pellet was re-suspended in cold 50 mM Tris-HCl buffer, aliquoted into 2 mL vials and stored at −80 °C. The total membrane protein concentration was measured using a Pierce BCA Protein Assay Kit (Thermo Scientific, Rockford, IL, USA) as per the manufacturer’s protocol.
(§3) Cannabinoid and opioid competitive radioligand binding assays were performed as previously described. Saturation experiments were performed for all the receptors to determine the receptor concentration and radioligand dissociation constant (Kd) for the membrane. Percent displacements were evaluated for all the cannabinoid and opioid subtypes with a triplicate of a fixed concentration (10 µg/mL for extracts and fractions and 10 μM for purified compounds). […] Control/test compounds were dissolved in DMSO at 10 μg/mL for extracts and fractions and 10 μM for purified compounds. […] The percent displacement was calculated to represent the ability of the samples to displace the radioligand binding for a given cannabinoid or opioid receptor subtype.
(§4) The percent displacement was calculated as follows: 100−binding of compound−nonspecific binding/specific binding×100
(§5) The competitive binding assays were performed using 12 serial dilutions of each compound ranging from 0.002 to 300 μM (control compounds were serially diluted from 10 μM to 0.06 nM). The cannabinoid assays were incubated for 90 min at 37 °C with gentle agitation. The opioid assays were incubated for 60 min at room temperature. Bound radioligands were collected on GF/C (cannabinoid) or GF/B plates (opioid) and washed 10 times with ice-cold 50 mM Tris-HCl (pH 7.4)/0.1% BSA (cannabinoid) or ice-cold 50 mM Tris-HCl (pH 7.4) (opioid). Radiodetection was measured with 50 µL (cannabinoid) or 25 µL (opioid) of MicroScint^TM-20 on a TopCount NXT HTS Microplate Scintillation Counter (PerkinElmer, Waltham, MA, USA). The IC50 and Ki values were calculated via a non-linear curve fit model using GraphPad Prism 5.0 software (GraphPad Software, Inc., San Diego, CA, USA). Each compound was tested in triplicate unless stated otherwise.

δ opioid receptor = biological target: T2, δ opioid receptor (Homo sapiens, UniProt P41143); experiment: Competitive radioligand binding assay, δ opioid; settings: for inhibition at 10 µM: [3H]-enkephalin (DPDPE), read-out: Percent displacement, Δ
T2 construct: host or cells: HEK293, stably transfected; membranes
Experimental: as §1, §2, §3, §4, §5

Stat3 = experiment: Luciferase reporter assay, Stat3, HeLa; type: cell-based, human
Experimental: (§6) Hela cells (or T98G cells) from ATCC were plated in white opaque 384-well plates at a density of 4300 cells/well in 30 µL of growth medium (DMEM with 10% FBS and 1% Pen/Strep). The next day, the medium was aspirated and replaced with DMEM containing 1% FBS. The cells were transfected with respective plasmids using X-tremeGENE HP DNA transfection reagent (Roche). After 24 h of transfection, the test agents were added to the transfected cells, followed 30 min later by an inducing agent: interleukin 6 (IL-6) for Stat3, TGF-β for Smad, m-wnt3a for Wnt and PMA for AP-1, NF-κB, E2F, Myc, ETS, Notch and Hedgehog. No inducer was added for FoXO and pTK. After 4 h or 6 h of induction, the cells were lysed via the addition of the One-Glo luciferase assay system (Promega; Madison, WI). The light output was detected in a GloMax®-Multi+ Detection System with Instinct® Software (Promega E 8051). This luciferase assay determines if the test agent is able to inhibit the activation of cancer-related signaling pathways. In the case of FoxO, the enhanced luciferase activity via the test agent was assessed.

Smad2/3 = experiment: Luciferase reporter assay, Smad2/3, HeLa; type: cell-based, human
Experimental: as §6

NF-κB = experiment: Luciferase reporter assay, NF-κB, HeLa; type: cell-based; settings: Homo sapiens; for IC50: HeLa cells, inducer PMA, dash: not inhibited by more than 40% at 50 µmol/L
Experimental: as §6

Myc = experiment: Luciferase reporter assay, Myc, HeLa; type: cell-based; settings: Homo sapiens; for IC50: HeLa cells, inducer PMA, dash: not inhibited by more than 40% at 50 µmol/L
Experimental: as §6

ETS = experiment: Luciferase reporter assay, ETS, HeLa; type: cell-based, human
Experimental: as §6

FoxO = experiment: Luciferase reporter assay, FoxO, HeLa; type: cell-based; settings: Homo sapiens, no inducer; for IC50: HeLa cells, dash: no activity detected, read-out: IC50, FoxO (None)
Experimental: as §6

Wnt = experiment: Luciferase reporter assay, Wnt, HeLa; type: cell-based; settings: Homo sapiens; for IC50: HeLa cells, inducer m-wnt3a, dash: not inhibited by more than 40% at 50 µmol/L
Experimental: as §6

Hedgehog = experiment: Luciferase reporter assay, Hedgehog, HeLa; type: cell-based, human
Experimental: as §6

[1] = tested on: minimal thymidine kinase promoter (pTK); experiment: Luciferase control vector pTK, HeLa; type: cell-based, human; settings: HeLa cells; up to 50 µM; no inducer
Experimental: as §6

[2] = Solubility in aqueous assay buffer; settings: aqueous buffer of the radioligand binding assay
[3] = Homo sapiens, HeLa cells, inducer IL6, dash: not inhibited by more than 40% at 50 µmol/L
[4] = Homo sapiens, HeLa cells, inducer TGF-beta, dash: not inhibited by more than 40% at 50 µmol/L
[5] = Homo sapiens, HeLa cells, inducer PMA, dash: not inhibited by more than 40% at 50 µmol/L
[6] = HeLa cells, inducer PMA, dash: not inhibited by more than 40% at 50 µmol/L

T2 sequence (P41143 whole entry): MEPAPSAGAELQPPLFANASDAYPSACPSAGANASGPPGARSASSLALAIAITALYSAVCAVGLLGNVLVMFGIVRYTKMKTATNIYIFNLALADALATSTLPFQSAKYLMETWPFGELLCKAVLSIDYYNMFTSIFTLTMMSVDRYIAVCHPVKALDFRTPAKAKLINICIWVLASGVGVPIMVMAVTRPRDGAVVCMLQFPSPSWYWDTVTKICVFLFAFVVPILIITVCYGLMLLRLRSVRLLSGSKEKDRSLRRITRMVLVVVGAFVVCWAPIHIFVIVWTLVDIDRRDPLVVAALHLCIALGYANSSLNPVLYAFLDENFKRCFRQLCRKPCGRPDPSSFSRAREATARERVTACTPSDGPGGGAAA
T1 sequence (P34972 whole entry): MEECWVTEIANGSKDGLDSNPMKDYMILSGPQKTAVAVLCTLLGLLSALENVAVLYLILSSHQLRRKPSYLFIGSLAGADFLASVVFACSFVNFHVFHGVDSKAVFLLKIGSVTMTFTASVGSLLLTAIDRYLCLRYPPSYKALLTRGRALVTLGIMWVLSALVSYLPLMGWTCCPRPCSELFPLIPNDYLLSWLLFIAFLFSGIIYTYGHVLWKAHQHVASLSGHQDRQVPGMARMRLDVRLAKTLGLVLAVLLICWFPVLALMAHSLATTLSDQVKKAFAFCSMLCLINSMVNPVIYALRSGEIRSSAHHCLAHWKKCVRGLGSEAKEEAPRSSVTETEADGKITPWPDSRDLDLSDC

Compound: C[C@H]1CC[C@H]2[C@H](C1)c1c(O)cc(/C=C/c3ccccc3O)cc1OC2(C)C [compound 3, machaeriol C]
- Ki (CB2 receptor): > 7.76 µM
- Percent displacement, CB2 (CB2 receptor): 55.5%
- inhibition at 10 µM (δ opioid receptor): 4.6%
- Ki (δ opioid receptor; Δ Ki ± SEM, NA = not active): 17.1 ± 2.61 µM
- IC50, Stat3 (IL6) (Stat3; HeLa cells, inducer IL6, dash: not inhibited by more than 40% at 50 µmol/L): lacked activity
- inhibition at 10 µM (Stat3; Homo sapiens, HeLa, 3 alone at 10 µM, compared to pTK as control, read-out: Additive effect (in % inhibition): percentage of luciferase induction, Stat3 (IL-6)): 92%
- IC50 (Stat3; [3]): 38 µM
- IC50, Smad2/3 (TGF-beta) (Smad2/3; HeLa cells, inducer TGF-beta, dash: not inhibited by more than 40% at 50 µmol/L): lacked activity
- inhibition at 10 µM (Smad2/3; Homo sapiens, HeLa, 3 alone at 10 µM, compared to pTK as control, read-out: Additive effect (in % inhibition): percentage of luciferase induction, Smad2/3 (TGF-β)): 93%
- IC50 (Smad2/3; [4]): 37 µM
- inhibition at 10 µM (NF-κB; HeLa, 3 alone at 10 µM, compared to pTK as control, read-out: Additive effect (in % inhibition): percentage of luciferase induction, NF-κB (PMA)): 70%
- IC50 (NF-κB): 11 µM
- inhibition at 10 µM (Myc; HeLa, 3 alone at 10 µM, compared to pTK as control, read-out: Additive effect (in % inhibition): percentage of luciferase induction, Myc (PMA)): 52%
- IC50 (Myc): 10 µM
- inhibition at 10 µM (ETS; Homo sapiens, HeLa, 3 alone at 10 µM, compared to pTK as control, read-out: Additive effect (in % inhibition): percentage of luciferase induction, ETS (PMA)): 66%
- IC50 (ETS; [5]): 15 µM
- inhibition at 10 µM (FoxO; HeLa, 3 alone at 10 µM, read-out: Additive effect (in % inhibition): percentage of luciferase induction, FoxO (None)): 120%
- IC50 (FoxO): > 50 µM
- inhibition at 10 µM (Wnt; HeLa, 3 alone at 10 µM, compared to pTK as control, read-out: Additive effect (in % inhibition): percentage of luciferase induction, Wnt (m-wnt3a)): 81%
- IC50 (Wnt): 22 µM
- inhibition at 10 µM (Hedgehog; Homo sapiens, HeLa, 3 alone at 10 µM, compared to pTK as control, read-out: Additive effect (in % inhibition): percentage of luciferase induction, Hedgehog (PMA)): 66%
- IC50 (Hedgehog; [5]): 10 µM
- Inhibition of luciferase expression driven by pTK [1]: no inhibition
- solubility [2]: < 33.3 µM

Compound: C=C(C)[C@H]1CC[C@H](C)C[C@@H]1c1c(O)cc(/C=C/c2ccccc2O)cc1O [compound 6, machaeridiol B]
- Percent displacement, CB2 (CB2 receptor): 56.8%
- Ki (CB2 receptor; * tested up to solubility limit, conc. at 33.3 μM and above precipitated, read-out: CB2 Ki ± SEM): > 2.18 µM
- inhibition at 10 µM (δ opioid receptor): 50.2%
- Ki (δ opioid receptor; NA = not active, read-out: Δ Ki ± SEM): 6.54 ± 0.77 µM
- Ki (δ opioid receptor; read-out: Δ pKi (converted)): 6.46 µM
- inhibition at 2 µM (Stat3; Homo sapiens, HeLa, 6 alone at 2 µM, compared to pTK as control, read-out: Additive effect (in % inhibition): percentage of luciferase induction, Stat3 (IL-6)): 82%
- IC50 (Stat3; [3]): 4.7 µM
- inhibition at 2 µM (Smad2/3; Homo sapiens, HeLa, 6 alone at 2 µM, compared to pTK as control, read-out: Additive effect (in % inhibition): percentage of luciferase induction, Smad2/3 (TGF-β)): 109%
- IC50 (Smad2/3; [4]): 1.2 µM
- inhibition at 2 µM (NF-κB; HeLa, 6 alone at 2 µM, compared to pTK as control, read-out: Additive effect (in % inhibition): percentage of luciferase induction, NF-κB (PMA)): 76%
- IC50 (NF-κB): 0.5 µM
- inhibition at 2 µM (Myc; HeLa, 6 alone at 2 µM, compared to pTK as control, read-out: Additive effect (in % inhibition): percentage of luciferase induction, Myc (PMA)): 111%
- IC50 (Myc): 5.3 µM
- IC50, ETS (PMA) (ETS; [6]): inactive
- inhibition at 2 µM (ETS; Homo sapiens, HeLa, 6 alone at 2 µM, compared to pTK as control, read-out: Additive effect (in % inhibition): percentage of luciferase induction, ETS (PMA)): 107%
- IC50 (ETS; [5]): > 50 µM
- inhibition at 2 µM (FoxO; HeLa, 6 alone at 2 µM, read-out: Additive effect (in % inhibition): percentage of luciferase induction, FoxO (None)): 105%
- IC50 (FoxO): > 50 µM
- inhibition at 2 µM (Wnt; HeLa, 6 alone at 2 µM, compared to pTK as control, read-out: Additive effect (in % inhibition): percentage of luciferase induction, Wnt (m-wnt3a)): 113%
- IC50 (Wnt): 4.2 µM
- IC50, Hedgehog (PMA) (Hedgehog; [6]): inactive
- inhibition at 2 µM (Hedgehog; Homo sapiens, HeLa, 6 alone at 2 µM, compared to pTK as control, read-out: Additive effect (in % inhibition): percentage of luciferase induction, Hedgehog (PMA)): 92%
- IC50 (Hedgehog; [5]): > 50 µM
- Inhibition of luciferase expression driven by pTK [1]: no inhibition
- solubility [2]: < 33.3 µM
